Consider `C[C@H](CO)Nc1nc(SCc2cccc(F)c2F)nc2[nH]c(=O)c(NCCO)nc12` [Example 1, 2-[[(2,3-difluorophenyl)methyl]thio]-6-[(2-hydroxyethyl)amino]-4-[[(1R)-2-hydroxy-1-methylethyl]amino]-7(8H)-pteridinone], for which the melting point (as a rule, the temperature, or range, at which the solid turns liquid) was in the range of 197 to 199 °C.

Turning to `C[C@H](CO)Nc1nc(SCc2cccc(F)c2F)nc2[nH]c(=O)c(NCc3ccccc3)nc12` [Example 2, 2-[[(2,3-difluorophenyl)methyl]thio]-4-[[(1R)-2-hydroxy-1-methylethyl]amino]-6-[(phenylmethyl)amino]-7(8H)-pteridinone], the melting point fell in the range of 80 to 100 °C.

The values above are taken from patent US20070142352A1, “Pteridinone Derivatives as Modulators of Chemokine Receptor Activity” (ASTRAZENECA AB, priority 2001, published 2007).
